Paper PMC10057480, “Expanding the Library of 1,2,4-Oxadiazole Derivatives: Discovery of New Farnesoid X Receptor (FXR) Antagonists/Pregnane X Receptor (PXR) Agonists” (Molecules, 2023)
“And” between values parts separate entries of the source, which are not always exact repeats. Identical values can stand only once.

Assays:
PXR [1] = target: T1, PXR (Homo sapiens, UniProt O75469); experiment: PXR luciferase reporter transactivation assay (agonism) on HepG2 cells; type: cell-based; conditions: compound 10 μM, maximal transactivation compared to Rifaximin 10 μM, mean ± SD, at least three experiments
T1 construct: expressed in transfected cells; host or cells: HepG2
T1 sequence (O75469 1-434): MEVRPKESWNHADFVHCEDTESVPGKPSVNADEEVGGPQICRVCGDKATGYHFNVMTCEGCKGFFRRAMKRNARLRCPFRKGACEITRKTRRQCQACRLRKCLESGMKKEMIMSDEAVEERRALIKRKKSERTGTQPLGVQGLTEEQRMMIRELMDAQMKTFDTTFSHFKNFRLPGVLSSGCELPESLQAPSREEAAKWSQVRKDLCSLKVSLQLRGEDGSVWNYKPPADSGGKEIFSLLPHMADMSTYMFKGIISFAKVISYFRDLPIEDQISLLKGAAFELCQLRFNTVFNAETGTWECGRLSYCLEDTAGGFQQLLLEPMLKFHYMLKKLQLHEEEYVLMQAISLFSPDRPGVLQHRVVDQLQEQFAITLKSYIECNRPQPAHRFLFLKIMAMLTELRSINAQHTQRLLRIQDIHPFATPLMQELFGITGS
T1 sequence (P19793 1-462 partner): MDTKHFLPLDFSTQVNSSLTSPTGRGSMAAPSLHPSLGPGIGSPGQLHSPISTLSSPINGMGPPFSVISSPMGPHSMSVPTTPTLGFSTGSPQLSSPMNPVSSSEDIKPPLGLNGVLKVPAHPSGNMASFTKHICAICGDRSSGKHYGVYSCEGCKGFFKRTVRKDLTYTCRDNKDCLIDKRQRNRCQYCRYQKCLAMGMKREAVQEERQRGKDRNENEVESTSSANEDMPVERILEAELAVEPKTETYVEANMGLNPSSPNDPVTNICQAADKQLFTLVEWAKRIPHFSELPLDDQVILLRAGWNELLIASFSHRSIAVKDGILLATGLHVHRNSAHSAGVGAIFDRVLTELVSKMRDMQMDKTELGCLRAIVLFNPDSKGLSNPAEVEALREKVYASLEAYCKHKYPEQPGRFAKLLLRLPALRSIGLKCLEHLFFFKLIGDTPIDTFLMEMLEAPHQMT
Description: The antagonistic activity on FXR was investigated using HepG2 cells transfected with 100 ng of pSG5-FXR and pSG5-RXR, 200 ng of the reporter vector p(hsp27)-TK-LUC containing the FXR response element, and 100 ng of the pGL4.70 vector encoding the human Renilla gene used as a transfection control. Cells were stimulated with the agonist 6-ECDCA (10 µM) alone or in combination with compounds 2–11 after 24 h. In another experimental setting, HepG2 cells were transfected using 100 ng of pSG5-PXR, 100 ng of pSG5-RXR, and 100 ng of pGL4.70, along with the reporter vector pGL3(henance)PXRE. At 24 h post-transfection, cells were stimulated with rifaximin 10 μM (as a positive control) or compounds 2–11 (10 μM). The specificity of compounds 5 and 11 versus FXR and PXR was tested using HepG2 cells transiently transfected with 200 ng of the reporter vector p(UAS)5XTKLuc, 100 ng of a vector containing the ligand binding domain of LXRα or LXRβand 100 ng of pGL4.70, a vector encoding the human Renilla gene. At 24 h post-transfection, cells were stimulated for 18 h with GW3965 (5 μM), compounds 5 and 11 (10 μM), and the combination of GW3965 plus 5 or 11 (50 μM). Cellular lysate was assayed for luciferase and Renilla activities after 18 h using the Dual-Luciferase Reporter assay system (E1980, Promega, Madison, WI, USA). The activity of luciferase was measured using the Glomax 20/20 luminometer (Promega, Madison, WI, USA) and normalized with Renilla activities.

[2] = Metabolic stability in human liver S9 fraction; type: in vitro ADME; conditions: pH 7.4, 1 μM compound, 37 °C
Description: Human liver S9 fraction (Sigma-Aldrich, St. Louis, MO, USA) was used. All incubations were performed in duplicate in a thermoblock (Dlab dry bath HB 120-S) at 37 °C. The incubation mixtures contained 1 μM compound with 0.1% DMSO used as a vehicle, human liver S9 fraction (0.3 mg of protein per mL), 5 mM taurine, 5 mM glycine, 5 mM glucose 6-phosphate, 5 mM GSH, 1 mM NADPH, 1 mM ATP, 0.4 mM CoA, 0.4 mM UDPGA, 0.1 mM PAPS, and 0.4 U·mL^−1 glucose 6-phosphate dehydrogenase. All the cofactors were dissolved in a 50 mM potassium phosphate buffer (pH 7.4), containing 5 mM MgCl2, for a final volume of 0.25 mL. Aliquots of 25 µL were removed at 0, 5, 15, 30, 45, 60, and 90 min after S9 addition, and the reaction was stopped by adding 100 μL of ice-cold MeOH. The samples were centrifuged for 10 min at 10,000 rpm, and the supernatants were transferred into vials for LC-MS/MS analysis. The slope of the linear regression of the curve obtained by reporting the natural logarithm of compound area versus incubation time (−k) was used in the conversion to in vitro t1/2 values, calculated as t1/2 = −ln(2)/k. In vitro intrinsic clearance (Clint expressed as μL/min/mg) was obtained by first calculating V using the formula: V = volume of reaction (μL)/protein of liver microsomes (mg); intrinsic clearance was then calculated as: Clint = (V × ln2)/t1/2.

[3] = LogD measurement (1-octanol/PBS pH 7.4, LC-MS/MS); type: physicochemical
Description: 40 μL of a 10 mM solution in DMSO of each compound was added to a 2 mL test tube containing 980 μL of PBS pH 7.4 and 980 μL of 1-Octanol (in duplicate). The tubes were shaken for 2 h at room temperature and subsequently kept still to allow for an optimal phase separation. The two phases were then separated, and 10 μL of each sample was diluted in 490 μL of MeOH for LC-MS/MS analysis. LogD was calculated as Log10 of the ratio of mass signal octanol/PBS. LC-MS/MS analysis was conducted using a Kinetex 2.6 µm C18 100 Å LC column 100 × 2.1 mm by means of a linear gradient of the aqueous phase (H2O 0.1% FA) and organic phase (ACN 0.1% FA).

PXR [4] = target: T1, PXR; experiment: PXR luciferase reporter transactivation assay (agonism) on HepG2 cells; type: cell-based; conditions: concentration-response, mean ± SEM, at least three experiments

Structure (SMILES) | PXR Agonism Eff (%) (PXR [1]) | half-life at 1 µM [2] | microsomal CLint at 1 µM [2] | logD at 2 h [3] | EC50 (PXR [4])
OCc1ccc(CN2CCC(c3nc(-c4ccc5ccccc5c4)no3)CC2)cc1 [Compound 11, 5-[1-(4-(Hydroxymethyl)benzyl)piperidin-4-yl]-3-(naphthalen-2-yl)-1,2,4-oxadiazole] | 105% and 105 ± 15% | 3.4 h | 11.3 µL/min/mg | 3.9 | 7.5 ± 1 µM
CCCCCN1CCC(c2nc(-c3ccc4ccccc4c3)no2)CC1 [Compound 5, 3-(Naphthalen-2-yl)-5-(1-pentylpiperidin-4-yl)-1,2,4-oxadiazole] | 71% and 71 ± 4% | 1.15 h | 33.7 µL/min/mg | 4.4 | 6.4 ± 0.1 µM
